The source of these data is ChEMBL document CHEMBL3046961, “Fungicidal activity of 12-propoxyimino-1, 15-pentadecanlactam on selected crops” (Crop Prot, 2009).

The structures appear in SMILES notation.

Data set [1] can be described thus: Biodistribution in Gossypium hirsutum (cotton) plant stem at 500 mg/L after 4 hr. The class given is ADME, organism-based. The conditions noted are these: read-out: Drug uptake.
The nature of data set [2]: Biodistribution in Gossypium hirsutum (cotton) plant stem at 500 mg/L after 16 hr. It is filed as ADME, organism-based. The conditions noted are these: read-out: Drug uptake.
A short description of data set [3]: Biodistribution in Gossypium hirsutum (cotton) plant root at 500 mg/L after 36 hr. The class given is ADME, organism-based. The conditions noted are these: read-out: Drug uptake.
In data set [4] the test system is Botrytis cinerea. Description: Antifungal activity against Botryotinia fuckeliana in cucumber plant at 281 g/ha treated 2 times in 6 days interval measured after 7 days last treatment relative to control. It is filed as functional.
Data set [5] can be described thus: Biodistribution in Gossypium hirsutum (cotton) plant leaf at 500 mg/L after 4 hr. The class given is ADME, organism-based. The conditions noted are these: read-out: Drug uptake.
Data set [6] can be described thus: Biodistribution in Gossypium hirsutum (cotton) plant leaf at 500 mg/L after 16 hr. It is filed as ADME, organism-based. The conditions noted are these: read-out: Drug uptake.
Data set [7] relates to Botrytis cinerea. As to the kind of experiment: Antifungal activity against Botryotinia fuckeliana in cucumber plant at 450 g/ha treated 2 times in 6 days interval measured after 7 days last treatment relative to control. The class given is functional.
Data set [8] is described as follows: Biodistribution in Gossypium hirsutum (cotton) plant stem at 500 mg/L after 8 hr. The class given is ADME, organism-based. The conditions noted are these: read-out: Drug uptake.
A short description of data set [9]: Biodistribution in Gossypium hirsutum (cotton) plant leaf at 500 mg/L after 36 hr. The class given is ADME, organism-based. The conditions noted are these: read-out: Drug uptake.
The species entered for data set [10] is Oryctolagus cuniculus. Description: Toxicity in Oryctolagus cuniculus (rabbit) assessed as skin irritation. The class given is organism-based. The note with it: in vivo.
The nature of data set [11]: Biodistribution in Gossypium hirsutum (cotton) plant root at 500 mg/L after 48 hr. The class given is ADME, organism-based. The conditions noted are these: read-out: Drug uptake.
Data set [12] can be described thus: Biodistribution in Gossypium hirsutum (cotton) plant stem at 500 mg/L after 48 hr. The conditions noted are these: read-out: Drug uptake. The class given is ADME, organism-based.
Data set [13] in a line: Biodistribution in Gossypium hirsutum (cotton) plant leaf at 500 mg/L after 24 hr. It is filed as ADME, organism-based. The note with it: read-out: Drug uptake.
A short description of data set [14]: Biodistribution in Gossypium hirsutum (cotton) plant leaf at 500 mg/L after 8 hr. It is filed as ADME, organism-based. The conditions noted are these: read-out: Drug uptake.
The nature of data set [15]: Biodistribution in Gossypium hirsutum (cotton) plant root at 500 mg/L after 4 hr. The conditions noted are these: read-out: Drug uptake. The class given is ADME, organism-based.
Data set [16] can be described thus: Acute oral toxicity in Rattus norvegicus (rat). It is filed as organism-based. The note with it: in vivo.
Data set [17] relates to Botrytis cinerea. Description: Antifungal activity against Botryotinia fuckeliana in seven to eight-leaf stage of tomato plant at 315 g/ha treated 24 hr before inoculation measured after 5 days relative to control. It is filed as functional.
A short description of data set [18]: Biodistribution in Gossypium hirsutum (cotton) plant stem at 500 mg/L after 36 hr. The class given is ADME, organism-based. The note with it: read-out: Drug uptake.
Data set [19] can be described thus: Biodistribution in Gossypium hirsutum (cotton) plant root at 500 mg/L after 16 hr. It is filed as ADME, organism-based. The note with it: read-out: Drug uptake.
The test system of data set [20] is Botrytis cinerea. Description: Antifungal activity against Botryotinia fuckeliana in seven to eight-leaf stage of tomato plant at 504 g/ha treated 24 hr before inoculation measured after 5 days relative to control. It is filed as functional.
Data set [21] is described as follows: Biodistribution in Gossypium hirsutum (cotton) plant root at 500 mg/L after 8 hr. The class given is ADME, organism-based. The conditions noted are these: read-out: Drug uptake.
The subject of data set [22] is Rhizoctonia solani. Description: Antifungal activity against Rhizoctonia solani in five-leaf stage of cucumber growing soil at 168 g/ha treated 48 hr before inoculation measured after 6 days relative to control by pot culture test. The class given is functional.
The subject of data set [23] is Botrytis cinerea. As to the kind of experiment: Antifungal activity against Botryotinia fuckeliana in seven to eight-leaf stage of tomato plant at 168 g/ha treated 24 hr before inoculation measured after 5 days relative to control. It is filed as functional.
Data set [24] can be described thus: Acute dermal toxicity in Rattus norvegicus (rat). It is filed as organism-based, Skin of body. The conditions noted are these: in vivo, topical or ocular.
Data set [25] in a line: Biodistribution in Gossypium hirsutum (cotton) plant leaf at 500 mg/L after 48 hr. The class given is ADME, organism-based. The note with it: read-out: Drug uptake.
Data set [26] is described as follows: Biodistribution in Gossypium hirsutum (cotton) plant stem at 500 mg/L after 24 hr. The class given is ADME, organism-based. The note with it: read-out: Drug uptake.
Data set [27] has as its system Rhizoctonia solani. Description: Antifungal activity against Rhizoctonia solani in five-leaf stage of cucumber growing soil at 315 g/ha treated 48 hr before inoculation measured after 6 days relative to control by pot culture test. It is filed as functional.
The species entered for data set [28] is Oryctolagus cuniculus. As to the kind of experiment: Toxicity in Oryctolagus cuniculus (rabbit) assessed as eye irritation. The class given is organism-based. The conditions noted are these: in vivo.
The subject of data set [29] is Rhizoctonia solani. As to the kind of experiment: Antifungal activity against Rhizoctonia solani in five-leaf stage of cucumber growing soil at 504 g/ha treated 48 hr before inoculation measured after 6 days relative to control by pot culture test. The class given is functional.
Data set [30] is described as follows: Biodistribution in Gossypium hirsutum (cotton) plant root at 500 mg/L after 24 hr. It is filed as ADME, organism-based. The note with it: read-out: Drug uptake.
Data set [31] deals with Rhizoctonia solani. Description: Antifungal activity against Rhizoctonia solani in five-leaf stage of cucumber growing soil at 450 g/ha treated 48 hr before inoculation measured after 6 days relative to control by pot culture test. It is filed as functional.
The subject of data set [32] is Botrytis cinerea. As to the kind of experiment: Antifungal activity against Botryotinia fuckeliana in seven to eight-leaf stage of tomato plant at 563 g/ha treated 24 hr before inoculation measured after 5 days relative to control. It is filed as functional.

Take `CCCON=C1CCCCCCCCCCC(=O)NCCC1`: the concentration at 4 h was determined as 190 ng/g in [1], 40 ng/g in [5] and 54400 ng/g in data set [15]. The concentration at 16 h in [2] is 2710 ng/g; in data set [6], 330 ng/g; in [19], 97000 ng/g. Further, the results for the concentration at 36 h in [3], in data set [9] and in data set [18] were 116000 ng/g, 2930 ng/g and 8950 ng/g, respectively. Further, the Activity with Botrytis cinerea [4] is on record as 89.51%; with Botrytis cinerea [7] it was 95.14%; with Botrytis cinerea [17] it was 85.82%; with Botrytis cinerea [20] it was 87.51%; in the data set with Rhizoctonia solani [22], 38.99%; in the data set with Botrytis cinerea [23], 80.67%. Further, the Activity is 53.46% in the data set with Rhizoctonia solani [27] and 73.59% in the data set with Rhizoctonia solani [29]. In addition, the concentration at 8 h came to 870 ng/g in data set [8], 110 ng/g in data set [14] and 66700 ng/g in data set [21]. Moreover, the LD50 result in the data set filed under Oryctolagus cuniculus [10] is “Non-toxic”; in data set [16] it was greater than 5000 mg/kg; in [24] it was greater than 2000 mg/kg; in the data set listed under Oryctolagus cuniculus [28] it was “Toxic”. The concentration at 48 h is 137000 ng/g in data set [11], 5120 ng/g in data set [12] and 2530 ng/g in data set [25]. Besides, the concentration at 24 h in data set [13] amounted to 890 ng/g; in data set [26], 4270 ng/g; in data set [30], 98000 ng/g.
`CN(C)C(=S)SSC(=S)N(C)C` [THIRAM]: the Activity with Rhizoctonia solani [31] was 42.14%.
In the data set with Botrytis cinerea [32], `CC(C)NC(=O)N1CC(=O)N(c2cc(Cl)cc(Cl)c2)C1=O` [IPRODIONE] gave an Activity of 90.39%.

For orientation: LD50 means the dose expected to kill half of the subjects tested.
